According to PubChem BioAssay AID248 (DTP/NCI, 2004):
Toxic doses and inconclusive results are not listed. Cut-off read from the data, not from the text of the source: active = T/C of 150% or more; inactive = T/C below 125%.

Tested on: L1210 leukemia ip in BDF1 mice, survival T/C
Assay: NCI In Vivo Anticancer Drug Screen. Data for tumor model L1210 Leukemia (intraperitoneal) in B6D2F1 (BDF1) mice
Settings: endpoint: mean survival time, higher = longer survival
Summary of the method: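 Ratio derived from survival: compound-dosed mice over vehicle-dosed mice, all bearing a transplantable tumor.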

[1] = dose: 100.0 mg/kg/injection, schedule: Q01DX001 (ip), vehicle: saline
[2] = dose: 100.0 mg/kg/injection, schedule: Q04DX002 (ip), vehicle: Klucel (hydroxypropylcellulose) (HPC)
[3] = dose: 200.0 mg/kg/injection, schedule: Q04DX002 (ip), vehicle: Klucel (hydroxypropylcellulose) (HPC)
[4] = dose: 400.0 mg/kg/injection, schedule: Q04DX002 (ip), vehicle: Klucel (hydroxypropylcellulose) (HPC)
[5] = dose: 100.0 mg/kg/injection, schedule: Q01DX009 (ip), vehicle: saline with Tween-80
[6] = dose: 100.0 mg/kg/injection, schedule: Q04DX003 (ip), vehicle: Klucel (hydroxypropylcellulose) (HPC)
[7] = dose: 200.0 mg/kg/injection, schedule: Q01DX009 (ip), vehicle: saline with Tween-80

Measured: T/C

O=c1[nH]cnc2ncnn12
inactive: dose: 100.0 mg/kg/injection, schedule: Q01DX001 (ip), vehicle: alkali diluted with saline 104 % of control | dose: 200.0 mg/kg/injection, schedule: Q01DX001 (ip), vehicle: alkali diluted with saline 109 % of control | dose: 400.0 mg/kg/injection, schedule: Q01DX001 (ip), vehicle: alkali diluted with saline 104 % of control

NC(=O)c1[nH]cnc1/N=N/N1CCCC1
inactive: dose: 125.0 mg/kg/injection, schedule: Q01DX Z (ip), vehicle: carboxymethylcellulose (CMC) 103 % of control | dose: 375.0 mg/kg/injection, schedule: Q01DX Z (ip), vehicle: carboxymethylcellulose (CMC) 105 % of control

Cc1ccc(S(=O)(=O)Nc2ccc([N+](=O)[O-])cc2O)cc1
inactive: dose: 100.0 mg/kg/injection, schedule: Q01DX009 (ip), vehicle: Klucel (hydroxypropylcellulose) (HPC) 97 % of control | dose: 200.0 mg/kg/injection, schedule: Q01DX009 (ip), vehicle: Klucel (hydroxypropylcellulose) (HPC) 101 % of control | dose: 400.0 mg/kg/injection, schedule: Q01DX009 (ip), vehicle: Klucel (hydroxypropylcellulose) (HPC) 94 % of control

N#CC1(C#N)C2C=CC(C3C(Cl)C=CC32)C1(C#N)C#N (centres undefined)
inactive: dose: 12.5 mg/kg/injection, schedule: Q01DX009 (ip), vehicle: saline with Tween-80 87 % of control | dose: 12.5 mg/kg/injection, schedule: Q04DX003 (ip), vehicle: saline with Tween-80 96 % of control | dose: 25.0 mg/kg/injection, schedule: Q01DX009 (ip), vehicle: saline with Tween-80 89 % of control | dose: 25.0 mg/kg/injection, schedule: Q04DX003 (ip), vehicle: saline with Tween-80 94 % of control | dose: 50.0 mg/kg/injection, schedule: Q04DX003 (ip), vehicle: saline with Tween-80 97 % of control

O=C1C=CC(=O)N1CCCCN1C(=O)C=CC1=O
inactive: dose: 11.1 mg/kg/injection, schedule: Q01DX Z (ip), vehicle: methylcellulose (MC) 96 % of control | dose: 16.6 mg/kg/injection, schedule: Q01DX Z (ip), vehicle: methylcellulose (MC) 106 % of control | dose: 25.0 mg/kg/injection, schedule: Q01DX Z (ip), vehicle: methylcellulose (MC) 93 % of control

CCC1COP(=O)(c2ccccc2)OC1 (centres undefined)
inactive: [1] 103 % of control | dose: 200.0 mg/kg/injection, schedule: Q01DX001 (ip), vehicle: saline 103 % of control | dose: 400.0 mg/kg/injection, schedule: Q01DX001 (ip), vehicle: saline 100 % of control

O=Nc1ccc2cc(O)ccc2c1O
inactive: dose: 1.56 mg/kg/injection, schedule: Q01DX009 (ip), vehicle: Klucel (hydroxypropylcellulose) (HPC) 96 % of control | dose: 3.12 mg/kg/injection, schedule: Q01DX009 (ip), vehicle: Klucel (hydroxypropylcellulose) (HPC) 96 % of control | dose: 6.25 mg/kg/injection, schedule: Q01DX009 (ip), vehicle: Klucel (hydroxypropylcellulose) (HPC) 104 % of control | dose: 12.5 mg/kg/injection, schedule: Q01DX009 (ip), vehicle: Klucel (hydroxypropylcellulose) (HPC) 101 % of control | dose: 12.5 mg/kg/injection, schedule: Q04DX003 (ip), vehicle: Klucel (hydroxypropylcellulose) (HPC) 103 % of control | dose: 25.0 mg/kg/injection, schedule: Q04DX003 (ip), vehicle: Klucel (hydroxypropylcellulose) (HPC) 97 % of control | dose: 50.0 mg/kg/injection, schedule: Q04DX003 (ip), vehicle: Klucel (hydroxypropylcellulose) (HPC) 100 % of control

CCCCc1c(C)nc(N)[nH]c1=O
inactive: [2] 104 % of control | [3] 100 % of control | [4] 100 % of control

COc1ccc(CN2CCCN(Cc3ccc(OC)cc3OC)C2c2cccc([N+](=O)[O-])c2O)c(OC)c1
inactive: dose: 50.0 mg/kg/injection, schedule: Q01DX001 (ip), vehicle: carboxymethylcellulose (CMC) 104 % of control | dose: 100.0 mg/kg/injection, schedule: Q01DX001 (ip), vehicle: carboxymethylcellulose (CMC) 98 % of control | dose: 200.0 mg/kg/injection, schedule: Q01DX001 (ip), vehicle: carboxymethylcellulose (CMC) 110 % of control | dose: 400.0 mg/kg/injection, schedule: Q01DX001 (ip), vehicle: carboxymethylcellulose (CMC) 98 % of control

CCOC(=O)CNc1cccc(Br)c1
inactive: [2] 107 % of control | [3] 100 % of control | [4] 103 % of control

CN=C(NC)c1cccc(NC(=O)c2ccc(C(=O)Nc3cccc(C(=NC)NC)c3)c(N)c2)c1
inactive: dose: 0.5 mg/kg/injection, schedule: Q01DX015 (ip), vehicle: water 102 % of control | dose: 1.0 mg/kg/injection, schedule: Q01DX015 (ip), vehicle: water 102 % of control | dose: 2.0 mg/kg/injection, schedule: Q01DX015 (ip), vehicle: water 110 % of control | dose: 3.75 mg/kg/injection, schedule: Q01DX Z (ip), vehicle: water 91 % of control | dose: 4.0 mg/kg/injection, schedule: Q01DX015 (ip), vehicle: water 102 % of control | dose: 7.5 mg/kg/injection, schedule: Q01DX Z (ip), vehicle: water 87 % of control | dose: 15.0 mg/kg/injection, schedule: Q01DX Z (ip), vehicle: water 93 % of control

CCN1CCC2CN(C(=S)Nc3ccccc3)CCN2C1=O (centres undefined)
inactive: dose: 100.0 mg/kg/injection, schedule: Q04DX003 (ip), vehicle: saline with Tween-80 97 % of control | dose: 200.0 mg/kg/injection, schedule: Q04DX003 (ip), vehicle: saline with Tween-80 94 % of control | dose: 400.0 mg/kg/injection, schedule: Q04DX003 (ip), vehicle: saline with Tween-80 91 % of control

Nc1ccnnc1
inactive: dose: 50.0 mg/kg/injection, schedule: Q01DX009 (ip), vehicle: saline 106 % of control | dose: 100.0 mg/kg/injection, schedule: Q01DX009 (ip), vehicle: saline 101 % of control | dose: 200.0 mg/kg/injection, schedule: Q01DX009 (ip), vehicle: saline 104 % of control

CCN(CC)CCCC(C)Nc1cccc2c1C(=O)c1c(c(O)c3ccccc3c1O)C2=O (centres undefined)
inactive: dose: 25.0 mg/kg/injection, schedule: Q04DX002 (ip), vehicle: saline 93 % of control | dose: 50.0 mg/kg/injection, schedule: Q04DX002 (ip), vehicle: saline 93 % of control | dose: 100.0 mg/kg/injection, schedule: Q04DX002 (ip), vehicle: saline 93 % of control

CCN=C(N)N=C(N)N
inactive: dose: 25.0 mg/kg/injection, schedule: Q01DX001 (ip), vehicle: saline 96 % of control | dose: 50.0 mg/kg/injection, schedule: Q01DX001 (ip), vehicle: saline 106 % of control | [1] 102 % of control

O=C(O)C(c1ccccc1)C1CCCC1 (centres undefined)
inactive: dose: 50.0 mg/kg/injection, schedule: Q01DX009 (ip), vehicle: saline with Tween-80 102 % of control | [5] 105 % of control | [6] 98 % of control | [7] 100 % of control | dose: 200.0 mg/kg/injection, schedule: Q04DX003 (ip), vehicle: Klucel (hydroxypropylcellulose) (HPC) 100 % of control | dose: 400.0 mg/kg/injection, schedule: Q04DX003 (ip), vehicle: Klucel (hydroxypropylcellulose) (HPC) 98 % of control

CC(C)N(/N=N/c1[nH]ncc1C(N)=O)C(C)C
inactive: dose: 100.0 mg/kg/injection, schedule: Q01DX001 (ip), vehicle: saline with Tween-80 104 % of control | [5] 108 % of control | dose: 200.0 mg/kg/injection, schedule: Q01DX001 (ip), vehicle: saline with Tween-80 104 % of control | [7] 98 % of control | dose: 400.0 mg/kg/injection, schedule: Q01DX001 (ip), vehicle: saline with Tween-80 93 % of control | dose: 400.0 mg/kg/injection, schedule: Q01DX009 (ip), vehicle: saline with Tween-80 95 % of control

NC(=O)COc1ccc(F)cc1F
inactive: dose: 100.0 mg/kg/injection, schedule: Q04DX002 (ip), vehicle: saline with Tween-80 101 % of control | dose: 200.0 mg/kg/injection, schedule: Q04DX002 (ip), vehicle: saline with Tween-80 97 % of control | dose: 400.0 mg/kg/injection, schedule: Q04DX002 (ip), vehicle: saline with Tween-80 93 % of control

COc1c2c(cc3c1OCO3)C13CCN(C2)C1CC(OC)C1OC13 (centres undefined)
inactive: dose: 5.0 mg/kg/injection, schedule: Q01DX001 (ip), vehicle: other 97 % of control | dose: 10.0 mg/kg/injection, schedule: Q01DX001 (ip), vehicle: other 109 % of control | dose: 20.0 mg/kg/injection, schedule: Q01DX001 (ip), vehicle: other 97 % of control | dose: 40.0 mg/kg/injection, schedule: Q01DX001 (ip), vehicle: other 90 % of control | dose: 80.0 mg/kg/injection, schedule: Q01DX001 (ip), vehicle: other 89 % of control

COC(=O)c1cc([N+](=O)[O-])c(Br)s1
inactive: [6] 93 % of control

NC(=S)N/N=C/c1cccn1Cc1cc2c(cc1[N+](=O)[O-])OCO2
inactive: dose: 25.0 mg/kg/injection, schedule: Q04DX002 (ip), vehicle: Klucel (hydroxypropylcellulose) (HPC) 100 % of control | dose: 50.0 mg/kg/injection, schedule: Q04DX002 (ip), vehicle: Klucel (hydroxypropylcellulose) (HPC) 96 % of control | [2] 104 % of control
